Measured values as given in patent US7727550B2, “Biologically active native biomatrix composition” (The UAB Research Foundation, priority 2003, dated 2010).

Legend:
[1] = test system: mesenchymal stem cells (MSC); assay: Mesenchymal stem cell culture on HuBiogel; type: cell-based; conditions: NGF 15 ng/ml
Method: Other cell type may also be grown on HuBiogel™ matrices, with the above being exemplary in nature only. Theses other cell types include neurons, hepatocytes, sertoli cells and the like. For Example, FIGS. 11A and B show glioma cells cultured on HuBiogel™ containing matrices. […] FIGS. 12A and B show mesenchymal stem cells (MSC) cells cultured on HuBiogel™ in the presence (FIG. 12B) and absence of 15 ng/ml NGF (FIG. 12A).

[2] = test system: human umbilical vascular endothelial cells (HUVEC); assay: HUVEC culture on two-dimensional biomatrix environments; type: cell-based; conditions: FGF 15 ng/ml, two-dimensional HuBiogel matrix
Method: […] The specific morphological changes in the monolayer HUVEC cultures was examined after 72 hrs incubation on each biomatrix environment. HUVECs cultured on plastic or purified collagen I grew poorly (<60% viability). […] Tubular capillary formation is confirmed by cross-sectional electron microscopy showing distinct lumen.

HUVEC = HUVEC migration and differentiation in three-dimensional HuBiogel disc culture system; type: cell-based, human; conditions: FGF 60 ng/ml added day 0, 5 mg/ml HuBiogel disc, 50 um pore size
Method: Endothelial cells were cultured under standard conditions. On day 0, FGF (60 ng/ml) was added to the culture and incubation continued. At the indicated times, cell morphology was examined and documented. […] There is no differentiation of the cells until the day 5-day 7 time period. After day 7, obvious differentiation as indicated by sprout formation/capillary formation can be seen. […] Such a temporally discrete timing of the activation migration and differentiation steps make the use of this system ideal for studying the biochemical mechanisms involved in each step, as well as isolating potential inhibitors of the mechanisms identified. This time dependent, temporally isolated sequence of events is in contrast to that seen with Matrigel, where differentiation events occur rapidly in the absence of added growth factors and/or growth stimulants.

Row | Substance | neuronal differentiation of MSC on HuBiogel [1] | HUVEC differentiation on HuBiogel enriched with growth factor [2] | growth factor induced HUVEC activation, migration and differentiation (HUVEC)
1 | NGF: nerve growth factor | neuronal differentiation occurred only in the presence of NGF | – | –
2 | FGF: fibroblast growth factor, purified angiogenic factor added to HuBiogel | – | rapid formation of tubule-like structures | induced a time dependent series of cellular activation, migration and differentiation steps
